# Reference: paper PMC12992618 (Nature Communications, 2026)
# Assays:
# BRAF = biological target: T1, BRAF (Homo sapiens, UniProt P15056, V600E); experiment: BRAF-IP kinase assay after […] h cell treatment; assay type: cell-based
# T1 construct: endogenous BRAF immunoprecipitated from HCC364 cells
# CRAF = biological target: T2, CRAF (Homo sapiens, UniProt P04049); experiment: CRAF-IP kinase assay after […] h cell treatment; assay type: cell-based
# T2 construct: gene RAF1; endogenous CRAF immunoprecipitated from NCI-H1666 and NCI-H2405 cells
# T2 sequence (P04049 whole entry): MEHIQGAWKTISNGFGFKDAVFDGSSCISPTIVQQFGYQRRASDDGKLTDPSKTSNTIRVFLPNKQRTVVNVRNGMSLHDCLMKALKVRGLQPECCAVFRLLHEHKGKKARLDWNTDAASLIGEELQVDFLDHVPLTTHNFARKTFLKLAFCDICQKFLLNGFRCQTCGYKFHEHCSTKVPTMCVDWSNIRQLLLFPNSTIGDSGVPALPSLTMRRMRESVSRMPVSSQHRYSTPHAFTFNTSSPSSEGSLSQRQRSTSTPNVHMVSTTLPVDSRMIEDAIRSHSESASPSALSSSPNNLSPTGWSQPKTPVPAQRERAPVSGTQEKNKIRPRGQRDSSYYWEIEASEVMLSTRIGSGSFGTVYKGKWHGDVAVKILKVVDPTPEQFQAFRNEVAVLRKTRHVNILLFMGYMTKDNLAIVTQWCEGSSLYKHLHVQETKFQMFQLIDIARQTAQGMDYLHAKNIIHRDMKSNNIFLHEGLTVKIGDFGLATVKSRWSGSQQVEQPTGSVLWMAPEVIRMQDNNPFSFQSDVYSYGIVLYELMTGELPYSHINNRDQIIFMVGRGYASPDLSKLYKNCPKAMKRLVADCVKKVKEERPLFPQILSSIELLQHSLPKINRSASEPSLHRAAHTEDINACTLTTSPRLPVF
# T1 sequence (P15056 2-766 V600E): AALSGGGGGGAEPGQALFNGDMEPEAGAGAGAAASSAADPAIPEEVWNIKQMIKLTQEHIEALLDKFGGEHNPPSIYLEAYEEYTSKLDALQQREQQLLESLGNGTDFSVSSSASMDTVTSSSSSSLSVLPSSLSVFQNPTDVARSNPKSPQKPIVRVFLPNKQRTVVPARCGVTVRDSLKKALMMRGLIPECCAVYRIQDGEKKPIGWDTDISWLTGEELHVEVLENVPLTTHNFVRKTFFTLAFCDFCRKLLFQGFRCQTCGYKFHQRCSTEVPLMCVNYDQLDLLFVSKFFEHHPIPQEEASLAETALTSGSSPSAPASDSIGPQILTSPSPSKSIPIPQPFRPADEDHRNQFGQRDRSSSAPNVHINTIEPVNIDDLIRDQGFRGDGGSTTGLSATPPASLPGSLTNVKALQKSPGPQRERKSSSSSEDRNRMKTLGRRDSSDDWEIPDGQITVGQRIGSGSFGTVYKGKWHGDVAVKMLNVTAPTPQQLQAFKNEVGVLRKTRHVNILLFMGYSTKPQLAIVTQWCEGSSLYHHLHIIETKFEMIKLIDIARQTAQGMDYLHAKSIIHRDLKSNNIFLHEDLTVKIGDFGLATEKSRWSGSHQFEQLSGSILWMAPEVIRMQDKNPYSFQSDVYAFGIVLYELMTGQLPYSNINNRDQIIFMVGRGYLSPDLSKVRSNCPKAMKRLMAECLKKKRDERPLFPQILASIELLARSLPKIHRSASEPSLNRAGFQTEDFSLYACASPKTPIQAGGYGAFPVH
structure (smiles),measurement,setting,value
Cc1ccc2c(Nc3cccc(Cl)c3F)nccc2c1NC(=O)c1csc2c(N)ncnc12 [belvarafenib],BRAF-IP kinase assay after 4 h cell treatment,BRAF,Exarafenib and belvarafenib exhibit potent inhibition of BRAF kinase activity in Class I and II BRAF mutations
same,CRAF-IP kinase assay after 4 h cell treatment,CRAF,baseline CRAF kinase activity was strongly detected in NCI-H1666 cells and was significantly inhibited by exarafenib and belvarafenib
